In patent US11319315B2, “Cyclohexyl acid triazole azoles as LPA antagonists” (BRISTOL-MYERS SQUIBB COMPANY, priority 2017, dated 2022):
Where a name gives a salt, the structure may show the parent alone. Read-outs that look alike come from different tables or passages of the source.

Target: T1, human LPA1 (Homo sapiens, UniProt Q92633)
T1 construct: expressed in transfected cells; host or cells: Chinese hamster ovary (CHO) cells
Experiment: LPA1 functional antagonist assay (LPA-induced calcium flux in CHO cells overexpressing human LPA1)
Type: cell-based
Conditions: read-out: hLPA1 IC50
Procedure, shortened: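 CHO cells overexpressing human LPA1, dye-loaded 30 min at 37 °C, then given compound (0.08 nM–5 μM final, 0.5% DMSO) in HBSS/20 mM HEPES/0.1% fatty-acid-free BSA for 20 min at room temperature before 10 nM LPA. IC50 as 50% inhibition of LPA-evoked calcium flux, 4-parameter logistic fit.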

[1] = inhibition of calcium flux induced by 10 nM LPA, CHO cells overexpressing human LPA1

T1 sequence (Q92633 whole entry): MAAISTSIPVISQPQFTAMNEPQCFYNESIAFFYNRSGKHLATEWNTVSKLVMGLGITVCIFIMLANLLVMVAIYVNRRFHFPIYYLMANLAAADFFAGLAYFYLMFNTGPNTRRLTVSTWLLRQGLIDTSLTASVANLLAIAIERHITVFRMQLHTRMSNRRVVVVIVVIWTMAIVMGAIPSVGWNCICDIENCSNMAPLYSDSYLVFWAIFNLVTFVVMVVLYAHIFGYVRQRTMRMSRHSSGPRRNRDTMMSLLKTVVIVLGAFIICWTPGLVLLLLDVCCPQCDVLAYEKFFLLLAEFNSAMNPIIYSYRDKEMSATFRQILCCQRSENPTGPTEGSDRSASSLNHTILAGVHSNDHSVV

Row | IC50 [1] | IC50 | Structure (SMILES)
1 | 12 nM |  | COc1cccc(Cc2nnn(Cc3c(-c4ccc(O[C@H]5CCC[C@H](C(=O)O)C5)c(C)n4)nnn3C)n2)c1 [Example 314, (1S,3S)-3-({6-[5-({5-[(3-methoxy-phenyl)methyl]-2H-1,2,3,4-tetrazol-2-yl}methyl)-1-methyl-1H-1,2,3-triazol-4-yl]-2-methylpyridin-3-yl}oxy)cyclohexane-1-carboxylic acid]
2 | 25 nM |  | Cc1nc(-c2nnn(C)c2Cn2nnc(OCC(C)C)n2)ccc1O[C@H]1CCC[C@H](C(=O)O)C1 [Example 344, (1S,3S)-3-{[2-methyl-6-(1-methyl-5-{[5-(2-methylpropoxy)-2H-1,2,3,4-tetrazol-2-yl]methyl}-1H-1,2,3-triazol-4-yl)pyridin-3-yl]oxy}cyclohexane-1-carboxylic acid]
3 |  | 931 nM | CCc1nc(-c2nnn(C)c2CNc2nc(C3CC3)ns2)ccc1O[C@H]1CCC[C@H](C(=O)O)C1 [Example 397, (1S,3S)-3-((6-(5-(((3-cyclopropyl-1,2,4-thiadiazol-5-yl)amino)methyl)-1-methyl-1H-1,2,3-triazol-4-yl)-2-ethylpyridin-3-yl)oxy)cyclohexane-1-carboxylic acid]
4 | 71 nM |  | CCCCn1cnc(OCc2c(-c3ccc(O[C@H]4CCC[C@H](C(=O)O)C4)c(C)n3)nnn2C)n1 [Example 141]
5 |  | 681 nM | COCCCCCOc1nnn(Cc2c(-c3ccc(O[C@H]4CCC[C@H](C(=O)O)C4)c(C)n3)nnn2C)n1 [Example 406, (1S,3S)-3-({6-[5-({5-[(5-methoxy-pentyl)oxy]-2H-1,2,3,4-tetrazol-2-yl}methyl)-1-methyl-1H-1,2,3-triazol-4-yl]-2-methylpyridin-3-yl}oxy)cyclohexane-1-carboxylic acid]
6 | 23 nM |  | Cc1ccc(Oc2nnn(Cc3c(-c4ccc(O[C@H]5CCC[C@H](C(=O)O)C5)c(C)n4)nnn3C)n2)cc1 [Example 326, (1S,3S)-3-((2-methyl-6-(1-methyl-5-((5-(p-tolyloxy)-2H-tetrazol-2-yl)methyl)-1H-1,2,3-triazol-4-yl)pyridin-3-yl)oxy)cyclohexane-1-carboxylic acid]
7 |  | 35 nM | CCc1nc(-c2nnn(C)c2CNc2nc(C3CCCC3)ns2)ccc1O[C@H]1CCC[C@H](C(=O)O)C1 [Example 393, (1S,3S)-3-((6-(5-(((3-cyclopentyl-1,2,4-thiadiazol-5-yl)amino)methyl)-1-methyl-1H-1,2,3-triazol-4-yl)-2-ethylpyridin-3-yl)oxy)cyclohexane-1-carboxylic acid]
8 | 32 nM |  | CCc1nc(-c2nnn(C)c2Cn2nnc(CC3CC3)n2)ccc1O[C@H]1CCC[C@H](C(=O)O)C1 [Example 307, (1S,3S)-3-{[6-(5-{[5-(cyclopropyl-methyl)-2H-1,2,3,4-tetrazol-2-yl]methyl}-1-methyl-1H-1,2,3-triazol-4-yl)-2-ethylpyridin-3-yl]oxy}cyclohexane-1-carboxylic acid]
9 |  | 2110 nM | CCn1nnc(NCc2c(-c3ccc(O[C@H]4CCC[C@H](C(=O)O)C4)c(C)n3)nnn2C)n1 [Example 376, (1S,3S)-3-((6-(5-(((2-ethyl-2H-tetrazol-5-yl)amino)methyl)-1-methyl-1H-1,2,3-triazol-4-yl)-2-methylpyridin-3-yl)oxy)cyclohexane-1-carboxylic acid]
10 | 103 nM |  | COCCCc1nc(NCc2c(-c3ccc(O[C@H]4CCC[C@H](C(=O)O)C4)c(C)n3)nnn2C)no1 [Example 146]
11 | 84 nM |  | Cc1nc(-c2nnn(C)c2CNc2cnn(-c3ccc(F)cc3)n2)ccc1O[C@H]1CCC[C@H](C(=O)O)C1 [Example 33, (1 S,3 S)-3-((6-(5-(((2-(4-fluorophenyl)-2H-1,2,3-triazol-4-yl)amino)methyl)-1-methyl-1H-1,2,3-triazol-4-yl)-2-methylpyridin-3-yl)oxy)cyclohexane-1-carboxylic acid]
12 | 455 nM |  | Cc1nc(-c2nnn(C)c2CNc2nnc(CC(C)C)s2)ccc1O[C@H]1CCC[C@H](C(=O)O)C1 [Example 8]
13 |  | 183 nM | Cc1cccc(-n2nnc(NCc3c(-c4ccc(O[C@H]5CCC[C@H](C(=O)O)C5)c(C)n4)nnn3C)n2)c1 [Example 380, (1S,3S)-3-((2-methyl-6-(1-methyl-5-(((2-(m-tolyl)-2H-tetrazol-5-yl)amino)methyl)-1H-1,2,3-triazol-4-yl)pyridin-3-yl)oxy)cyclohexane-1-carboxylic acid]
14 | 92 nM |  | Cc1nc(-c2nnn(C)c2Cn2nnc([C@H]3CCCO3)n2)ccc1O[C@H]1CCC[C@H](C(=O)O)C1 [Example 297, (1S,3S)-3-({2-methyl-6-[1-methyl-5-({5-[(2R)-oxolan-2-yl]-2H-1,2,3,4-tetrazol-2-yl}methyl)-1H-1,2,3-triazol-4-yl]pyridin-3-yl}oxy)cyclohexane-1-carboxylic acid]
15 | 396 nM |  | CCCc1nnc(NCc2c(-c3ccc(O[C@H]4CCC[C@H](C(=O)O)C4)c(C)n3)nnn2C)o1 [Example 52]
16 |  | 300 nM | Cc1nc(-c2nnn(C)c2CNc2nnnn2CC2CC2)ccc1O[C@H]1CCC[C@H](C(=O)O)C1 [Example 378, (1S,3S)-3-((6-(5-(((1-(cyclopropylmethyl)-1H-tetrazol-5-yl)amino)methyl)-1-methyl-1H-1,2,3-triazol-4-yl)-2-methylpyridin-3-yl)oxy)cyclohexane-1-carboxylic acid]
17 | 25 nM |  | Cc1nc(-c2nnn(C)c2CNc2nsc(C(C)C)n2)ccc1O[C@H]1CCC[C@H](C(=O)O)C1 [Example 120]
18 | 63 nM |  | Cc1nc(-c2nnn(C)c2Cn2ccc(Cc3ccccc3)n2)ccc1O[C@H]1CCC[C@H](C(=O)O)C1 [Example 317, (1S,3S)-3-((6-(5-((3-benzyl-1H-pyrazol-1-yl)methyl)-1-methyl-1H-1,2,3-triazol-4-yl)-2-methylpyridin-3-yl)oxy)cyclo-hexane-1-carboxylic acid]
19 | 546 nM |  | Cc1nc(-c2nnn(C)c2Cn2nnc(OC3CCCC3)n2)ccc1O[C@H]1CCC[C@@H](C(=O)O)C1 [Example 337, (1R,3S)-3-{[6-(5-{[5-(cyclopentyloxy)-2H-1,2,3,4-tetrazol-2-yl]methyl}-1-methyl-1H-1,2,3-triazol-4-yl)-2-methylpyridin-3-yl]oxy}cyclohexane-1-carboxylic acid]
20 | 221 nM |  | Cc1nc(-c2nnn(C)c2CNc2noc(C3CCCO3)n2)ccc1O[C@H]1CCC[C@H](C(=O)O)C1 (mixture of isomers) [Example 221, (1S,3S)-3-((2-methyl-6-(1-methyl-5-(((5-(tetrahydrofuran-2-yl)-1,2,4-oxadiazol-3-yl)amino)methyl)-1H-1,2,3-triazol-4-yl)pyridin-3-yl)oxy) cyclohexane-1-carboxylic acid]
21 | 76 nM |  | CCOCc1noc(Cc2c(-c3ccc(O[C@H]4CCC[C@H](C(=O)O)C4)c(C)n3)nnn2C)n1 [Example 249, (1S,3S)-3-((6-(5-((3-(ethoxymethyl)-1,2,4-oxadiazol-5-yl)methyl)-1-methyl-1H-1,2,3-triazol-4-yl)-2-methylpyridin-3-yl)oxy)cyclohexane-1-carboxylic acid]
22 | 51 nM |  | Cc1nc(-c2nnn(C)c2CNc2noc(CCC3CC3)n2)c(F)cc1O[C@H]1CCC[C@H](C(=O)O)C1 [Example 279, (1S,3S)-3-((6-(5-(((5-(2-cyclopropyl-ethyl)-1,2,4-oxadiazol-3-yl)amino)methyl)-1-methyl-1H-1,2,3-triazol-4-yl)-5-fluoro-2-methylpyridin-3-yl)oxy)cyclohexane-1-carboxylic acid]
23 | 425 nM |  | CCCc1nsc(OCc2c(-c3ccc(O[C@H]4CCC[C@H](C(=O)O)C4)c(C)n3)nnn2C)n1 [Example 127]
24 | 31 nM |  | Cc1nc(-c2nnn(C)c2CNc2noc(CCC(C)F)n2)ccc1O[C@H]1CCC[C@H](C(=O)O)C1 (stereo partly shown) [Example 200]
25 | 466 nM |  | COC(C)c1nc(NCc2c(-c3ccc(O[C@H]4CCC[C@H](C(=O)O)C4)c(C)n3)nnn2C)no1 (mixture of isomers) [Example 223, (1S,3S)-3-((6-(5-(((5-(1-methoxy-ethyl)-1,2,4-oxadiazol-3-yl)amino)methyl)-1-methyl-1H-1,2,3-triazol-4-yl)-2-methylpyridin-3-yl)oxy)cyclo-hexane-1-carboxylic acid]
26 | 221 nM |  | Cc1nc(-c2nnn(C)c2Cn2nc(Cc3ccccc3)oc2=N)ccc1O[C@H]1CCC[C@H](C(=O)O)C1 [Example 41, (1S,3S)-3-((6-(5-((5-Benzyl-2-imino-1,3,4-oxadiazol-3(2H)-yl)methyl)-1-methyl-1H-1,2,3-triazol-4-yl)-2-methylpyridin-3-yl)oxy)cyclohexane-1-carboxylic acid, bis TFA salt]
27 | 61 nM |  | Cc1nc(-c2nnn(C)c2Cc2noc(CCC(F)(F)F)n2)ccc1O[C@H]1CCC[C@H](C(=O)O)C1 [Example 240]
28 | 124 nM |  | Cc1nc(-c2nnn(C)c2Cn2nnnc2COc2ccccc2)ccc1O[C@H]1CCC[C@H](C(=O)O)C1 [Example 304, (1S,3S)-3-{[2-methyl-6-(1-methyl-5-{[5-(phenoxymethyl)-1H-1,2,3,4-tetrazol-1-yl]methyl}-1H-1,2,3-triazol-4-yl)pyridin-3-yl]oxy}cyclohexane-1-carboxylic acid]
29 | 239 nM |  | Cc1nc(-c2nnn(C)c2Cn2nnnc2-c2ccccc2)ccc1O[C@H]1CCC[C@H](C(=O)O)C1 [Example 108]

Row | Structure (SMILES) | IC50 [1] | IC50
30 | CCCCOc1nnn(Cc2c(-c3ccc(O[C@H]4CCC[C@H](C(=O)O)C4)c(C)n3)nnn2C)n1 [Example 345, (1S,3S)-3-[(6-{5-[(5-butoxy-2H-1,2,3,4-tetrazol-2-yl)methyl]-1-methyl-1H-1,2,3-triazol-4-yl}-2-methylpyridin-3-yl)oxy]cyclo-hexane-1-carboxylic acid] | 32 nM | 
31 | Cc1nc(-c2nnn(C)c2Cn2nnc(OC3CCC3)n2)ccc1O[C@H]1CCC[C@H](C(=O)O)C1 [Example 333, (1S,3S)-3-[(6-{5-[(5-cyclobutoxy-2H-1,2,3,4-tetrazol-2-yl)methyl]-1-methyl-1H-1,2,3-triazol-4-yl}-2-methylpyridin-3-yl)oxy]cyclo-hexane-1-carboxylic acid] | 48 nM | 
